As a reminder, the IC50 is the point on the concentration scale where inhibition reaches its midpoint. The term AUC(0-t) denotes exposure summed from dosing to a finite time, without extrapolation to infinity. Low readings indicate less exposure, high ones more exposure. One may read the Cmax as the maximum level reached in the sampled fluid or tissue.

SMILES strings stand for the structures. Where two headings read alike, the source gives them in different places.

The subject of one data set is HIV-1 strain 92HT599. The data set can be described thus: Antiviral activity against HIV-1 strain 92HT599 in MT2 cells (p24 estimation). Format: cell-based. Particulars: HIV-1 92HT599, ~96 hours. The procedure, abridged: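 Percent inhibition versus vehicle controls came from p24 quantified in supernatant aliquots. These were taken after ~96 h incubation of compound (DMSO ≤1%) with MT2 cells infected at 10 TCID50/30,000 cells.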

The test system of another data set is HIV-1 pNL4-3 WT. Kind of data set: Antiviral activity against pNL4-3/WT strain in MT4 cells (p24 estimation). Particulars: Human immunodeficiency virus 1, MT4, 96 h, read-out: pNL4-3 WT IC50. Format: cell-based. The procedure, abridged: (§1)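 MT4 cells infected with HIV-1 pNL4-3 WT or V7A (defined TCID50, 1.5 h, 37° C), plated at 3×10^4 cells/well with test compound, final DMSO ≤1%. After 4 days' culture, p24 in supernatant aliquots measured by kit.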

For a further data set, the system named is HIV-1 pNL4-3 V7A. The data set can be described thus: Antiviral activity against pNL4-3/V7A strain in MT4 cells (p24 estimation). Format: cell-based. The conditions noted are these: Human immunodeficiency virus 1, MT4, 96 h, read-out: pNL4-3 V7A IC50. The procedure, abridged:
as §1

Data set [1] can be described thus: Single dose oral pharmacokinetic study. Format: in vivo. Particulars: mouse; Mice oral PK @30 mg/kg; plasma. As to the method:
Example 80: Evaluation of Compounds Single Dose Oral Pharmacokinetic Study
The test item was administered through oral route to animals (rat/mice) at 30 mg/kg dose in a suitable vehicle (10% Solutol+20% PEG) at 10 ml/kg dose volume. Blood samples (˜50 μL at each time point) were collected from retro-orbital plexus using K3 EDTA as anticoagulant in eppendorf tubes at defined time intervals 30 minutes, 1 hour, 2 hour, 4 hour, 8 hour, 24 hour & 48 hour under light ether anaesthesia. The samples were centrifuged at 3500×g to separate plasma and stored at −80° C. until analysis. Plasma 25 μl for Mice were processed as per described in sample preparation.
Standard solutions of the test compound 1 mg/mL solutions were prepared in DMSO and further dilutions were made in methanol. The calibration curve samples for LCMSMS analysis were prepared by spiking 25 μl of Mice plasma with 2.5 μl and of the appropriate working standard solution to obtain final concentrations 0.078, 0.156, 0.312, 0.625, 1.25, 2.5, 5, 10, 20 & 40 μg/ml. To the test compound plasma extraction was carried out using Acetonitrile precipitation. After reconstitution with solvent (50% Acetonitrile in Buffer) samples were analyzed by LCMSMS to get the concentrations to calculate PK Parameters.

Setting [2] is: Human immunodeficiency virus 1, 0% serum binding assay, read-out: IC50 0% serum.
Setting [3] is: Human immunodeficiency virus 1, 40% serum binding assay, read-out: IC50 40% serum.

For the molecule `CC(C)C1=C2[C@H]3CC[C@@H]4[C@@]5(C)CC[C@H](OC(=O)[C@H]6C[C@@H](C(=O)O)C6(C)C)C(C)(C)[C@@H]5CC[C@@]4(C)[C@]3(C)CC[C@@]2(NC(=O)C(C)(C)NS(=O)(=O)c2ccc(Cl)cc2)CC1=O` [Example 65, (1R,3S)-3-((((3aR,5aR,5bR,7aR,9S,11aR,11bR,13aS)-3a-(2-((4-chlorophenyl)sulfonamido)-2-methylpropanamido)-1-isopropyl-5a,5b,8,8,11a-pentamethyl-2-oxo-3,3a,4,5,5a,5b,6,7,7a,8,9,10,11,11a,11b,12,13,13a-octadecahydro-2H-cyclopenta[a]chrysen-9-yl)oxy)carbonyl)-2,2-dimethylcyclobutane-1-carboxylic acid], the concentration for half-maximal inhibition (IC50) with HIV-1 strain 92HT599 (setting [2]) is under 3 nM; with HIV-1 strain 92HT599 (setting [3]), under 50 nM; with HIV-1 pNL4-3 WT, over 10 nM; in the data set on HIV-1 pNL4-3 V7A it was over 50 nM. This molecule displayed an area under the curve AUC(0-t) in data set [1] of 145 µg·h/mL. In data set [1], the highest level (Cmax) was 7380 ng/mL.
Take `Cc1ccc(C(=O)NC2(C(=O)N[C@@]34CC[C@]5(C)[C@H](CC[C@@H]6[C@@]7(C)CC[C@H](OC(=O)[C@H]8C[C@@H](C(=O)O)C8(C)C)C(C)(C)[C@@H]7CC[C@]65C)C3=C(C(C)C)C(=O)C4)CC2)cc1` [Example 40, (1R,3S)-3-((((3aR,5aR,5bR,7aR,9S,11aR,11bR,13aS)-1-isopropyl-5a,5b,8,8,11a-pentamethyl-3a-(1-(4-methylbenzamido)cyclopropane-1-carboxamido)-2-oxo-3,3a,4,5,5a,5b,6,7,7a,8,9,10,11,11a,11b,12,13,13a-octadecahydro-2H-cyclopenta[a]chrysen-9-yl)oxy)carbonyl)-2,2-dimethylcyclobutane-1-carboxylic acid]: the half-maximal inhibitory concentration (IC50) in the data set on HIV-1 strain 92HT599 (setting [2]) was under 3 nM; in the data set on HIV-1 strain 92HT599 (setting [3]) it was under 50 nM; with HIV-1 pNL4-3 WT it was under 5 nM; in the data set on HIV-1 pNL4-3 V7A it was under 10 nM.
Consider `Cc1ccc(C(=O)NC2(C(=O)N[C@@]34CC[C@]5(C)[C@H](CC[C@@H]6[C@@]7(C)CC[C@H](OC(=O)[C@H]8C[C@@H](C(=O)O)C8(C)C)C(C)(C)[C@@H]7CC[C@]65C)C3=C(C(C)C)C(=O)C4)CCCC2)cn1` [Example 47, (1R,3S)-3-((((3aR,5aR,5bR,7aR,9S,11aR,11bR,13aS)-1-isopropyl-5a,5b,8,8,11a-pentamethyl-3a-(1-(6-methylnicotinamido)cyclopentane-1-carboxamido)-2-oxo-3,3a,4,5,5a,5b,6,7,7a,8,9,10,11,11a,11b,12,13,13a-octadecahydro-2H-cyclopenta[a]chrysen-9-yl)oxy)carbonyl)-2,2-dimethylcyclobutane-1-carboxylic acid], for which the IC50 in the data set with HIV-1 strain 92HT599 (setting [2]) is under 3 nM; with HIV-1 strain 92HT599 (setting [3]), under 50 nM; with HIV-1 pNL4-3 WT it was under 5 nM; with HIV-1 pNL4-3 V7A, under 10 nM.
In the same order, the values of `CC(C)C1=C2[C@H]3CC[C@@H]4[C@@]5(C)CC[C@H](OC(=O)[C@H]6C[C@@H](C(=O)O)C6(C)C)C(C)(C)[C@@H]5CC[C@@]4(C)[C@]3(C)CC[C@@]2(NC(=O)C(C)(C)NC(=O)c2ccc(Cl)cn2)CC1=O` [Example 70, (1R,3S)-3-((((3aR,5aR,5bR,7aR,9S,11aR,11bR,13aS)-3a-(2-(5-chloropicolinamido)-2-methylpropanamido)-1-isopropyl-5a,5b,8,8,11a-pentamethyl-2-oxo-3,3a,4,5,5a,5b,6,7,7a,8,9,10,11,11a,11b,12,13,13a-octadecahydro-2H-cyclopenta[a]chrysen-9-yl)oxy)carbonyl)-2,2-dimethylcyclobutane-1-carboxylic acid] are under 3 nM, under 50 nM, under 5 nM and under 10 nM.
For the molecule `Cc1occc1C(=O)NC(C)(C)C(=O)N[C@@]12CC[C@]3(C)[C@H](CC[C@@H]4[C@@]5(C)CC[C@H](OC(=O)[C@H]6C[C@@H](C(=O)O)C6(C)C)C(C)(C)[C@@H]5CC[C@]43C)C1=C(C(C)C)C(=O)C2` [Example 30, (1R,3S)-3-((((3aR,5aR,5bR,7aR,9S,11aR,11bR,13aS)-1-isopropyl-5a,5b,8,8,11a-pentamethyl-3a-(2-methyl-2-(2-methylfuran-3-carboxamido)propan amido)-2-oxo-3,3a,4,5,5a,5b,6,7,7a,8,9,10,11,11a,11b,12,13,13a-octadecahydro-2H-cyclopenta[a]chrysen-9-yl)oxy)carbonyl)-2,2-dimethylcyclobutane-1-carboxylic acid], the half-maximal inhibitory concentration (IC50) is under 3 nM with HIV-1 strain 92HT599 (setting [2]), under 50 nM in the data set with HIV-1 strain 92HT599 (setting [3]), 5.01 to 10 nM with HIV-1 pNL4-3 WT and over 50 nM in the data set with HIV-1 pNL4-3 V7A.

(Values after patent publication US11034718B2, “C-3 novel triterpenone with C-17 reverse amide derivatives as HIV inhibitors” (HETERO LABS LIMITED, priority 2015, dated 2021).)
